The subject of the assay is BDF1 mice, Adenocarcinoma 755 s.c., tumor weight T/C. Kind of assay: NCI In Vivo Anticancer Drug Screen. Data for tumor model Adenocarcinoma 755 (subcutaneous) in B6D2F1 (BDF1) mice. The settings on record: endpoint: mean tumor weight, higher = larger tumour. The procedure: The antitumor activity of compounds was measured in mice bearing transplantable tumors. Survival or tumor size were measured and the results are expressed as the measurement made in the treated group (T) divided by the measurement made in the vehicle treated control group (C). The tumor model used in this assay is Adenocarcinoma 755 (subcutaneous) in B6D2F1 (BDF1) mice

The mark [1] stands for this setting: dose: 30.0 mg/kg/injection, schedule: Q01DX011 (ip), vehicle: carboxymethylcellulose (CMC).
Setting [2] is: dose: 60.0 mg/kg/injection, schedule: Q01DX011 (ip), vehicle: carboxymethylcellulose (CMC).
Setting [3] is: dose: 120.0 mg/kg/injection, schedule: Q01DX011 (ip), vehicle: carboxymethylcellulose (CMC).
Setting [4] is: dose: 240.0 mg/kg/injection, schedule: Q01DX011 (ip), vehicle: carboxymethylcellulose (CMC).
Setting [5] is: dose: 80.0 mg/kg/injection, schedule: Q01DX011 (ip), vehicle: carboxymethylcellulose (CMC).
The mark [6] stands for this setting: dose: 100.0 mg/kg/injection, schedule: Q01DX011 (ip), vehicle: saline.

For orientation: T/C means the ratio of treated to control.

Where “and” joins values, the source holds several entries; their conditions need not be identical. Equal entries are not always repeated.

`CC(=O)[C@@]12OC(C)(C)O[C@@H]1C[C@H]1[C@@H]3C[C@H](C)C4=CC(=O)CC[C@]4(C)[C@H]3CC[C@@]12C`: the T/C by setting is: (dose: 56.0 mg/kg/injection, schedule: Q01DX011 (sc), vehicle: steriod suspending solution) 28 % of control; (dose: 62.0 mg/kg/injection, schedule: Q01DX011 (sc), vehicle: steriod suspending solution) 34 % of control; (dose: 75.0 mg/kg/injection, schedule: Q01DX011 (sc), vehicle: steriod suspending solution) 38 % of control; (dose: 113.0 mg/kg/injection, schedule: Q01DX011 (sc), vehicle: steriod suspending solution) 46 % of control; (dose: 125.0 mg/kg/injection, schedule: Q01DX011 (sc), vehicle: steriod suspending solution) 21 % of control; (dose: 150.0 mg/kg/injection, schedule: Q01DX011 (sc), vehicle: steriod suspending solution) 18 % of control. For the same compound, the T/C runs as follows: (dose: 225.0 mg/kg/injection, schedule: Q01DX011 (sc), vehicle: steriod suspending solution) 24 % of control; (dose: 250.0 mg/kg/injection, schedule: Q01DX011 (sc), vehicle: steriod suspending solution) 17 % of control; (dose: 300.0 mg/kg/injection, schedule: Q01DX011 (sc), vehicle: steriod suspending solution) 15 % of control; (dose: 450.0 mg/kg/injection, schedule: Q01DX011 (sc), vehicle: steriod suspending solution) 35 % of control; (dose: 600.0 mg/kg/injection, schedule: Q01DX011 (sc), vehicle: steriod suspending solution) 14 % of control; (dose: 900.0 mg/kg/injection, schedule: Q01DX011 (sc), vehicle: steriod suspending solution) 16 % of control.
Regarding `CC(C)CN(C)/N=N/c1nc[nH]c1C(N)=O`, the T/C (dose: 25.0 mg/kg/injection, schedule: Q01DX011 (ip), vehicle: carboxymethylcellulose (CMC)) is 40 % of control and the T/C (dose: 37.5 mg/kg/injection, schedule: Q01DX011 (ip), vehicle: carboxymethylcellulose (CMC)) was 22 % of control.
With `Cc1cnc(Cl)nc1Sc1nc(N)nc2nc[nH]c12`, the T/C (dose: 0.5 mg/kg/injection, schedule: Q01DX011 (ip), vehicle: methylcellulose (MC)) was 56 % of control; the T/C (dose: 0.75 mg/kg/injection, schedule: Q01DX011 (ip), vehicle: carboxymethylcellulose (CMC)) is 31 % of control; the T/C (dose: 1.0 mg/kg/injection, schedule: Q01DX011 (ip), vehicle: carboxymethylcellulose (CMC)) was 31 % of control and 38 % of control; the T/C (dose: 1.0 mg/kg/injection, schedule: Q01DX011 (ip), vehicle: methylcellulose (MC)) is 52 % of control; the T/C (dose: 1.5 mg/kg/injection, schedule: Q01DX011 (ip), vehicle: carboxymethylcellulose (CMC)) is 11 % of control; the T/C (dose: 3.0 mg/kg/injection, schedule: Q01DX011 (ip), vehicle: carboxymethylcellulose (CMC)) was 8 % of control and 11 % of control. Besides, the T/C (dose: 3.0 mg/kg/injection, schedule: Q01DX011 (ip), vehicle: methylcellulose (MC)) was 35 % of control and the T/C (dose: 6.0 mg/kg/injection, schedule: Q01DX011 (ip), vehicle: carboxymethylcellulose (CMC)) was 8 % of control.
With `Cc1ccc(S(=O)(=O)OCC2OC(n3cnc4c(=O)[nH]c(N)nc43)C(O)C2O)cc1` (centres undefined), the T/C runs as follows: (dose: 5.0 mg/kg/injection, schedule: Q01DX011 (ip), vehicle: carboxymethylcellulose (CMC)) 108 % of control; under setting [1], 97 % of control; under setting [2], 100 % of control; under setting [3], 98 % of control; under setting [4], 62 % of control.
Regarding `O=S1(=O)CCCO1`, the T/C under setting [5] was 32 % of control and 33 % of control.
For the compound `Nc1ncnc2c1ncn2C1CCCCC1`, the T/C runs as follows: (dose: 34.0 mg/kg/injection, schedule: Q01DX011 (oral), vehicle: carboxymethylcellulose (CMC)) 75 % of control; (dose: 68.0 mg/kg/injection, schedule: Q01DX011 (oral), vehicle: carboxymethylcellulose (CMC)) 120 % of control; (dose: 136.0 mg/kg/injection, schedule: Q01DX011 (oral), vehicle: carboxymethylcellulose (CMC)) 78 % of control; (dose: 272.0 mg/kg/injection, schedule: Q01DX011 (oral), vehicle: carboxymethylcellulose (CMC)) 106 % of control.
With `C=CCSc1ncnc2c1ncn2C1OC(CO)C(O)C1O` (centres undefined), the T/C runs as follows: (dose: 1.0 mg/kg/injection, schedule: Q01DX011 (ip), vehicle: saline) 63 % of control; (dose: 1.6 mg/kg/injection, schedule: Q01DX011 (ip), vehicle: saline) 82 % of control; (dose: 2.0 mg/kg/injection, schedule: Q01DX011 (ip), vehicle: saline) 112 % of control; (dose: 3.2 mg/kg/injection, schedule: Q01DX011 (ip), vehicle: saline) 119 % of control; (dose: 4.0 mg/kg/injection, schedule: Q01DX011 (ip), vehicle: saline) 50 % of control; (dose: 5.0 mg/kg/injection, schedule: Q01DX011 (ip), vehicle: saline) 75 % of control. For the same compound, the T/C is 40 % of control (dose: 6.3 mg/kg/injection, schedule: Q01DX011 (ip), vehicle: saline); 16 % of control (dose: 7.0 mg/kg/injection, schedule: Q01DX011 (ip), vehicle: saline); 38 % of control (dose: 10.0 mg/kg/injection, schedule: Q01DX011 (ip), vehicle: saline); 42 % of control (dose: 12.5 mg/kg/injection, schedule: Q01DX011 (ip), vehicle: saline); 2 % of control (dose: 13.0 mg/kg/injection, schedule: Q01DX011 (ip), vehicle: saline); 8 % of control (dose: 20.0 mg/kg/injection, schedule: Q01DX011 (ip), vehicle: saline). Moreover, the T/C is 1 % of control and 19 % of control (dose: 25.0 mg/kg/injection, schedule: Q01DX011 (ip), vehicle: saline); 1 % of control (dose: 40.0 mg/kg/injection, schedule: Q01DX011 (ip), vehicle: saline); 18 % of control (dose: 50.0 mg/kg/injection, schedule: Q01DX011 (ip), vehicle: saline); 1 % of control (dose: 80.0 mg/kg/injection, schedule: Q01DX011 (ip), vehicle: saline); 11 % of control under setting [6].
Consider `CCCCN(C)/N=N/c1nc[nH]c1C(N)=O`, for which, under setting [5], the T/C is 4 % of control.
Regarding `Cn1c(=O)c2c(nc(N/N=C/c3ccccc3C(=O)O)n2C)n(C)c1=O`, the T/C is 76 % of control under setting [1], 69 % of control under setting [2], 74 % of control under setting [3] and 62 % of control under setting [4].
With `Nc1nc(SCc2ccccc2)c2ncn(Cc3ccccc3)c2n1`, the T/C reads like this: (dose: 62.5 mg/kg/injection, schedule: Q01DX011 (ip), vehicle: methylcellulose (MC)) 28 % of control; (dose: 125.0 mg/kg/injection, schedule: Q01DX011 (ip), vehicle: methylcellulose (MC)) 14 % of control; (dose: 250.0 mg/kg/injection, schedule: Q01DX011 (ip), vehicle: methylcellulose (MC)) 7 % of control.
Take `Oc1ccc2ccccc2c1N=Nc1ccc(Cl)cc1`: the T/C is 15 % of control (dose: 3.1 mg/kg/injection, schedule: Q01DX011 (ip), vehicle: other); 108 % of control (dose: 6.25 mg/kg/injection, schedule: Q01DX011 (ip), vehicle: other); 91 % of control and 84 % of control (dose: 12.5 mg/kg/injection, schedule: Q01DX011 (ip), vehicle: other); 56 % of control and 62 % of control (dose: 25.0 mg/kg/injection, schedule: Q01DX011 (ip), vehicle: other); 50 % of control (dose: 50.0 mg/kg/injection, schedule: Q01DX011 (ip), vehicle: carboxymethylcellulose (CMC)); 40 % of control (dose: 100.0 mg/kg/injection, schedule: Q01DX011 (ip), vehicle: carboxymethylcellulose (CMC)). The T/C (dose: 100.0 mg/kg/injection, schedule: Q01DX011 (ip), vehicle: other) was 24 % of control and 49 % of control; the T/C under setting [6] is 81 % of control; the T/C (dose: 200.0 mg/kg/injection, schedule: Q01DX011 (ip), vehicle: carboxymethylcellulose (CMC)) was 34 % of control; the T/C (dose: 200.0 mg/kg/injection, schedule: Q01DX011 (ip), vehicle: other) was 25 % of control; the T/C (dose: 200.0 mg/kg/injection, schedule: Q01DX011 (ip), vehicle: saline) is 38 % of control; the T/C (dose: 400.0 mg/kg/injection, schedule: Q01DX011 (ip), vehicle: carboxymethylcellulose (CMC)) was 36 % of control. The T/C (dose: 400.0 mg/kg/injection, schedule: Q01DX011 (ip), vehicle: other) was 14 % of control and 24 % of control; the T/C (dose: 400.0 mg/kg/injection, schedule: Q01DX011 (ip), vehicle: saline) was 28 % of control; the T/C (dose: 800.0 mg/kg/injection, schedule: Q01DX011 (ip), vehicle: carboxymethylcellulose (CMC)) is 16 % of control; the T/C (dose: 800.0 mg/kg/injection, schedule: Q01DX011 (ip), vehicle: other) was 6 % of control; the T/C (dose: 1200.0 mg/kg/injection, schedule: Q01DX011 (ip), vehicle: other) is 9 % of control.

(Values after PubChem BioAssay AID180 (DTP/NCI, 2004).)
